Experimental data taken from US20230072421A1, “TARGETED RADIOPHARMACEUTICALS FOR THE DIAGNOSIS AND TREATMENT OF PROSTATE CANCER” (Bayer AS, priority 2019, published 2023).

Key:
C4-2 cells = assay: Cell proliferation assay (CellTiter-Glo, 5-day exposure), C4-2; assay type: cell-based; conditions: C4-2, 1000 cells/well, Th-227 labelled at 375 kBq/nmol, mean of 1 to 6 experiments
Method: (§1) Inhibition of cell proliferation of Thorium-227 labeled PMSA SMOL ligands was tested different prostate cancer cell lines, namely 22Rv1, VCaP, C4-2 (all from ATCC, Manassas, Va., USA) and LNCaP (DMSZ, Braunschweig). Cells were seeded using the following conditions in 384 well plates (Corning) in 30 μl of growth media at 4000 cells/well for VCaP cells and 1000 cells/well for 22Rv1, C4-2 and LNCaP cells.
(§2) Cells were cultivated an incubator at 37° C. and 5% C02 over night. […] In sister plates cell viability at treatment start (d=0) was determined using CellTiter-Glo® assay (CTG, Promega, Madison, Wis., USA), by adding 30 μl per well CTG solution, incubation for 10 min and reading of Luminescence in a PheraStarFSX instrument (BMG Labtech). After a 5-day exposure in the presenced of test compounds, cell viability of treated or untreated control cells was determined again using CellTiter-Glo® assay (Promega, Madison, Wis., USA). […] The DRC software is a Biobook Spreadsheet that was developed by Bayer AG and Bayer Business Services on the IDBS E-Workbook Suite platform (IDBS: ID Business Solutions Ltd., Guildford, UK).

[1] = tested on: LNCaP human prostate cancer cells; assay: LNCaP xenograft efficacy study (T/C tumor area); assay type: in vivo, SCID mice
Method: (§3) SCID mice were randomly assigned to experimental groups, ten animals per group (efficacy) or n=3-5 per time point of biodistribution study. At the initiation of the study, a testosterone pellet was subcutaneously transplanted, the animals were shaved, tattooed and each cage was labeled with the cage number, study number and number of animals per cage.
(§4) LNCaP human prostate cancer cells were cultured as described according to the supplier's protocols. Cells were harvested for transplantation in a subconfluent (70%) state. Animals were injected with 5×10^6 LNCaP cells suspended in 100% Matrigel subcutaneously into the flank of the mice.
Efficacy study: When tumors reached a predetermined size in mice of 35-50 mm^2 animals were randomized into treatment and control groups (n=10 animals/group) and treatment with the defined radioactive dose was started. The i.v. application volume was 100 μl/mice.
Tumor response was assessed by determination of the tumor area (product of the longest diameter and its perpendicular) using a caliper. The animal body weight was monitored as a measure for treatment-related toxicity. Measurement of tumor area and body weight was performed two to three times weekly.
Animals were sacrificed when showing signs of toxicity (>20% body weight loss) or when tumors reached a size of approximately 200 mm^2.
Tumor growth inhibition is presented as T/C ratio (Treatment/Control) calculated with tumor areas when the vehicle control group had to be closed.

VCaP cells = assay: Cell proliferation assay (CellTiter-Glo, 5-day exposure), VCaP; assay type: cell-based; conditions: 4000 cells/well, Th-227 labelled at 375 kBq/nmol, mean of 1 to 6 experiments
Method: as §1, §2

22Rv1 cells = assay: Cell proliferation assay (CellTiter-Glo, 5-day exposure), 22Rv1; assay type: cell-based; conditions: 22Rv1, 1000 cells/well, Th-227 labelled at 375 kBq/nmol, mean of 1 to 6 experiments
Method: as §1, §2

[2] = Biodistribution study in LNCaP tumor-bearing mice (Th227 counted in organs); assay type: in vivo, SCID mice; conditions: 500 kBq/kg; for Th-227 in Blood / Th-227 in Femur bone / Th-227 in Kidneys / Th-227 in Liver / Th-227 in Spleen / Th-227 in Tumor / Th-227 in salivary glands: study b3004
Method: as §3, §4
Biodistribution study: When tumors reached a predetermined size in mice of ˜50 mm^2 animals were randomized into groups (n=3 animals/time point) and the radioactive compound was once applied intravenously. The i.v. application volume was 100 μl/mice.
At the predetermined time point, n=3 animals were sacrificed, the organs removed, weight and measured in a Germanium detector to count the Th227 in the sample.

[3] = Example IV, day 36 after start of therapy, once 1 MBq/kg
[4] = comparison of % injected dose per gram tissue

## Cc1cc(C(=O)NCCN(CCCN(CCNC(=O)c2cc(C)n(CC(=O)NCC3CCC(C(=O)NC(Cc4cnc5ccccc5c4)C(=O)NCCCCC(NC(=O)NC(CCC(=O)O)C(=O)O)C(=O)O)CC3)c(=O)c2[O-])CCNC(=O)c2cc(C)n(CC(=O)NCC3CCC(C(=O)NC(Cc4cnc5ccccc5c4)C(=O)NCCCCC(NC(=O)NC(CCC(=O)O)C(=O)O)C(=O)O)CC3)c(=O)c2[O-])CCNC(=O)c2cc(C)n(CC(=O)NCC3CCC(C(=O)NC(Cc4cnc5ccccc5c4)C(=O)NCCCCC(NC(=O)NC(CCC(=O)O)C(=O)O)C(=O)O)CC3)c(=O)c2[O-])c([O-])c(=O)n1CC(=O)O.[227Th+4] (centres unmarked) [Example 22-C trimer-227Th]
C4-2 cells
  Proliferation assay on cancer cell lines by TTCs Default Pivot #3 IC50 [kBq/mL] C4-2 1000cells 375kBq/nmol (mean): 1.82 kBq/mL
[1]; [3]
  T/Carea: 0.64
VCaP cells
  Proliferation assay on cancer cell lines by TTCs Default Pivot #3 IC50 [kBq/mL] VCap 4000cells 375kBq/nmol (mean): 2.62 kBq/mL
22Rv1 cells
  Proliferation assay on cancer cell lines by TTCs Default Pivot #3 IC50 [kBq/mL] 22Rv1 1000cells 375kBq/nmol (mean): 0.84 kBq/mL

## Cc1cc(C(=O)NCCN(CCCN(CCNC(=O)c2cc(C)n(CC(=O)O)c(=O)c2[O-])CCNC(=O)c2cc(C)n(CC(=O)NCC3CCC(C(=O)NC(Cc4ccc5ccccc5c4)C(=O)NCCCCC(NC(=O)NC(CCC(=O)O)C(=O)O)C(=O)O)CC3)c(=O)c2[O-])CCNC(=O)c2cc(C)n(CC(=O)NCC3CCC(C(=O)NC(Cc4ccc5ccccc5c4)C(=O)NCCCCC(NC(=O)NC(CCC(=O)O)C(=O)O)C(=O)O)CC3)c(=O)c2[O-])c([O-])c(=O)n1CC(=O)O.[227Th+4] (centres unmarked) [1-C dimer-227Th]
C4-2 cells
  Proliferation assay on cancer cell lines by TTCs Default Pivot #3 IC50 [kBq/mL] C4-2 1000cells 375kBq/nmol (mean): 1.12 kBq/mL
[2]; [4]
  Accumulation in the tumor (in words): much higher accumulation in the tumor
  Background in blood, liver and spleen (in words): lower background compared to 1-F-227Th
[2]; 1 h
  Th-227 in Blood: 0.90 % ID Th-227/g organ
  Th-227 in Femur bone: 1.39 % ID Th-227/g organ
  Th-227 in Kidneys: 120.74 % ID Th-227/g organ
  Th-227 in Liver: 1.49 % ID Th-227/g organ
  Th-227 in Spleen: 2.33 % ID Th-227/g organ
  Th-227 in Tumor: 19.99 % ID Th-227/g organ
  Th-227 in salivary glands: 5.02 % ID Th-227/g organ
[2]; 24 h
  Th-227 in Blood: 0.07 % ID Th-227/g organ
  Th-227 in Femur bone: 1.65 % ID Th-227/g organ
  Th-227 in Kidneys: 102.45 % ID Th-227/g organ
  Th-227 in Liver: 1.34 % ID Th-227/g organ
  Th-227 in Spleen: 1.50 % ID Th-227/g organ
  Th-227 in Tumor: 14.49 % ID Th-227/g organ
  Th-227 in salivary glands: 1.39 % ID Th-227/g organ
[2]; 72 h
  Th-227 in Blood: 0.01 % ID Th-227/g organ
  Th-227 in Femur bone: 1.25 % ID Th-227/g organ
  Th-227 in Kidneys: 2.10 % ID Th-227/g organ
  Th-227 in Liver: 1.02 % ID Th-227/g organ
  Th-227 in Spleen: 0.76 % ID Th-227/g organ
  Th-227 in Tumor: 8.99 % ID Th-227/g organ
  Th-227 in salivary glands: 0.77 % ID Th-227/g organ
[2]; 168 h
  Th-227 in Blood: 0.01 % ID Th-227/g organ
  Th-227 in Femur bone: 1.76 % ID Th-227/g organ
  Th-227 in Kidneys: 17.42 % ID Th-227/g organ
  Th-227 in Liver: 1.28 % ID Th-227/g organ
  Th-227 in Spleen: 1.24 % ID Th-227/g organ
  Th-227 in Tumor: 8.68 % ID Th-227/g organ
  Th-227 in salivary glands: 1.17 % ID Th-227/g organ
[2]; 336 h
  Th-227 in Blood: 0.00 % ID Th-227/g organ
  Th-227 in Femur bone: 1.55 % ID Th-227/g organ
  Th-227 in Kidneys: 5.40 % ID Th-227/g organ
  Th-227 in Liver: 1.06 % ID Th-227/g organ
  Th-227 in Spleen: 0.73 % ID Th-227/g organ
  Th-227 in Tumor: 2.85 % ID Th-227/g organ
  Th-227 in salivary glands: 1.20 % ID Th-227/g organ
[1]; Example II, day 33 after start of therapy, 375 kBq/kg weekly for 5 weeks
  T/Carea: 0.60
[1]; Example II, day 33 after start of therapy, 750 kBq/kg weekly for 5 weeks
  T/Carea: 0.34
[1]; [3]
  T/Carea: 0.48
VCaP cells
  Proliferation assay on cancer cell lines by TTCs Default Pivot #3 IC50 [kBq/mL] VCap 4000cells 375kBq/nmol (mean): 1.55 kBq/mL
22Rv1 cells
  Proliferation assay on cancer cell lines by TTCs Default Pivot #3 IC50 [kBq/mL] 22Rv1 1000cells 375kBq/nmol (mean): 1.04 kBq/mL

## O=C([O-])CN1CCN(CC(=O)[O-])CCN(CC(=O)NCc2ccc(C(=O)N[C@@H](Cc3ccc4ccccc4c3)C(=O)NCCCC[C@H](NC(=O)N[C@@H](CCC(=O)O)C(=O)O)C(=O)O)nc2)CCN(CC(=O)[O-])CC1.[227Th+4] [Example 25-B-227Th, [^227Th]Thorium (3S,10S,14S)-3-[(naphthalen-2-yl)methyl]-1,4,12-trioxo-1-{5-[(2-{4,7,10-tris[(carboxy-kappaO)methyl]-1,4,7,10-tetraazacyclododecan-1-yl-kappa^4N^1,N^4,N^7,N^10}acetamido)methyl]pyridin-2-yl}-2,5,11,13-tetraazahexadecane-10,14,16-tricarboxylate]
C4-2 cells
  Proliferation assay on cancer cell lines by TTCs Default Pivot #3 IC50 [kBq/mL] C4-2 1000cells 375kBq/nmol (mean): 0.1 kBq/mL
VCaP cells
  Proliferation assay on cancer cell lines by TTCs Default Pivot #3 IC50 [kBq/mL] VCap 4000cells 375kBq/nmol (mean): 1.51 kBq/mL
22Rv1 cells
  Proliferation assay on cancer cell lines by TTCs Default Pivot #3 IC50 [kBq/mL] 22Rv1 1000cells 375kBq/nmol (mean): 0.73 kBq/mL

## O=C([O-])CN1CCN(CC(=O)[O-])CCN(CC(=O)Nc2ccc(-c3ccn(CC(=O)N[C@@H](Cc4ccc5ccccc5c4)C(=O)NCCCC[C@H](NC(=O)N[C@@H](CCC(=O)O)C(=O)O)C(=O)O)n3)cc2)CCN(CC(=O)[O-])CC1.[227Th+4] [Example 28-B-227Th, [^227Th]Thorium (4S,11S,15S)-4-[(naphthalen-2-yl)methyl]-2,5,13-trioxo-1-{3-[4-(2-{4,7,10-tris[(carboxy-kappaO)methyl]-1,4,7,10-tetraazacyclododecan-1-yl-kappa^4N^1,N^4,N^7,N^10}acetamido)phenyl]-1H-pyrazol-1-yl}-3,6,12,14-tetraazaheptadecane-11,15,17-tricarboxylate]
C4-2 cells
  Proliferation assay on cancer cell lines by TTCs Default Pivot #3 IC50 [kBq/mL] C4-2 1000cells 375kBq/nmol (mean): 2.22 kBq/mL
VCaP cells
  Proliferation assay on cancer cell lines by TTCs Default Pivot #3 IC50 [kBq/mL] VCap 4000cells 375kBq/nmol (mean): 4.77 kBq/mL
22Rv1 cells
  Proliferation assay on cancer cell lines by TTCs Default Pivot #3 IC50 [kBq/mL] 22Rv1 1000cells 375kBq/nmol (mean): 1.22 kBq/mL
